For data set [1], the system named is TNFα release in THP-1 cells. Description: LPS-induced TNFα release in THP-1 cells. The class given is cell-based, human. To be noted: Homo sapiens. As to the method: LPS-Induced TNFα Release in THP-1 Cells
THP-1 cells, a human monocytic cell line, were stimulated with 3 μg/mL of LPS (from E. Coli; 0111:B4, Sigma) for 4 hr and the supernatant collected for determination of the TNFα concentration by sandwich ELISA (Duo-set, R&D systems). The inhibition of TNFα production was calculated at each concentration by comparison with vehicle control. The 50% inhibitory concentration (IC50) was determined from the resultant concentration-response curve.

For data set [2], the system named is Differentiated U937 cells. Description: Cell viability MTT assay. Conditions: negative = apparent increase in viability; for MTT Assay (Viability) 4 h d-U937, percentage loss of cell viability: 4 hr in 5% FCS; for MTT Assay (Viability) 24 h d-U937, percentage loss of cell viability: 24 h in 10% FCS. Type of data set: cell-based, human. As to the method:
Differentiated U937 cells were pre-incubated with each test compound under two protocols: the first for 4 hr in 5% FCS and the second in 10% FCS for 24 h. The supernatant was replaced with 200 μL of new media and 10 μL of MTT stock solution (5 mg/mL) was added to each well. After incubation for 1 hr the media were removed, 200 μL of DMSO was added to each well and the plates were shaken lightly for 1 hr prior to reading the absorbance at 550 nm. The percentage loss of cell viability was calculated for each well relative to vehicle (0.5% DMSO) treatment. Consequently an apparent increase in cell viability for drug treatment relative to vehicle is tabulated as a negative percentage.
On the technique in general: Tetrazolium assays rely on reduction of a dye to a coloured formazan, in cell work by metabolically active cells.

In data set [3] the test system is IL-8 release in d-U937 cells. The experiment in a line: LPS-induced IL-8 release in d-U937 cells. Type of data set: cell-based, human. To be noted: Homo sapiens, dU937. The method, then: (§1) LPS-Induced TNFα/IL-8 Release in d-U937 Cells
(§2) U937 cells, a human monocytic cell line, were differentiated to macrophage-type cells by incubation with phorbol myristate acetate (PMA; 100 ng/ml) for 48 to 72 hr. Cells were pre-incubated with final concentrations of test compound for 2 hr and were then stimulated with 0.1 μg/mL of LPS (from E. Coli: O111:B4, Sigma) for 4 hr. The supernatant was collected for determination of TNFα and IL-8 concentrations by sandwich ELISA (Duo-set, R&D systems). The inhibition of TNFα production was calculated as a percentage of that achieved by 10 μg/mL of BIRB796 at each concentration of test compound by comparison against vehicle control. The relative 50% effective concentration (REC50) was determined from the resultant concentration-response curve. The inhibition of IL-8 production was calculated at each concentration of test compound by comparison with vehicle control. The 50% inhibitory concentration (IC50) was determined from the resultant concentration-response curve.

For data set [4], the system named is ICAM-1 induction in BEAS2B cells. Description: Poly I:C-induced ICAM-1 induction in BEAS2B cells. The class given is cell-based, human. Conditions: Homo sapiens, BEAS-2B, read-out: PolyIC/ICAM1 IC50 BEAS2B. The method, then:
Poly I:C-Induced ICAM-1 Induction in BEAS2B Cells
Poly I:C (1 μg/mL) (Invivogene Ltd., San Diego, Calif.) was transfected into BEAS2B cells (human bronchial epithelial cells, ATCC) with Oligofectamine (Invitrogen, Carlsbad, Calif.). Cells were pre-incubated with final concentrations of test compounds for 2 hr and the level of ICAM1 expression on the cell surface was determined by cell-based ELISA. At a time point 18 hr after poly I:C transfection, cells were fixed with 4% formaldehyde in PBS and then endogenous peroxidase was quenched by the addition of 0.1% sodium azide and 1% hydrogen peroxide. Cells were washed with wash-buffer (0.1% Tween in PBS: PBS-Tween). and after blocking the wells with 5% milk in PBS-Tween for 1 hr, the cells were incubated with anti-human ICAM-1 antibody (Cell Signaling Technology, Danvers, Mass.) in 1% BSA PBS overnight at 4° C. The cells were washed with PBS-Tween and incubated with the secondary antibody (HRP-conjugated anti-rabbit IgG, Dako Ltd., Glostrup, Denmark). The ICAM-1 signal was detected by adding substrate and reading the absorbance at 450 nm against a reference wavelength of 655 nm using a spectrophotometer. The cells were then washed with PBS-Tween and total cell numbers in each well were determined by reading absorbance at 595 nm after Crystal Violet staining and elution by 1% SDS solution. The measured OD 450-655 readings were corrected for cell number by dividing with the OD595 reading in each well. The inhibition of ICAM-1 expression was calculated at each concentration of test compound by comparison with vehicle control. The 50% inhibitory concentration (IC50) was determined from the resultant concentration-response curve.

Another data set concerns the target T1, p38 MAPKγ (MAPK12) (Homo sapiens, UniProt P53778).
T1 construct: purchased Invitrogen
T1 sequence (P53778 1-367): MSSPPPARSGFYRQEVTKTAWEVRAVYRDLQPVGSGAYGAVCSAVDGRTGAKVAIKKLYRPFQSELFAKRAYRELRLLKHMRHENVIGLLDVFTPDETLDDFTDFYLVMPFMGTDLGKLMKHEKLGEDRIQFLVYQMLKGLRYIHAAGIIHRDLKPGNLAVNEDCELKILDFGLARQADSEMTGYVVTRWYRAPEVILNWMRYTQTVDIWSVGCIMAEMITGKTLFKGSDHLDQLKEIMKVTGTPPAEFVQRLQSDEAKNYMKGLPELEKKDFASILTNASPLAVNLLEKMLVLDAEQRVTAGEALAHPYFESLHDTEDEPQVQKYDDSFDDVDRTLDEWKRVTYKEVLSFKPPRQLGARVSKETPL
The experiment in a line: Enzyme inhibition assay (FRET, Z-LYTE), p38 MAPKγ. Type of data set: biochemical. Conditions: read-out: Enzyme Inhibition IC50 p38γ. As to the method:
(§3) The enzyme inhibitory activities of compounds disclosed herein were determined by fluorescence resonance energy transfer (FRET) using synthetic peptides labelled with both donor and acceptor fluorophores (Z-LYTE, Invitrogen Ltd., Paisley, UK). Recombinant, phosphorylated p38 MAPKγ (MAPK12:Invitrogen) was diluted in HEPES buffer, mixed with the test compound at the desired final concentrations and incubated for 2 hr at RT. The FRET peptide (2 μM) and ATP (100 μM) were added to the enzyme/compound mixture and incubated for 1 hr. Development reagent (protease) was added for 1 hr prior to detection in a fluorescence microplate reader (Varioskan® Flash, ThermoFisher Scientific). The site-specific protease cleaves non-phosphorylated peptide only and eliminates the FRET signal. Phosphorylation levels of each reaction were calculated using the ratio of coumarin emission (donor) over fluorescein emission (acceptor) for which high ratios indicate high phosphorylation and low ratios indicate low phosphorylation levels. The percentage inhibition of each reaction was calculated relative to non-inhibited control and the 50% inhibitory concentration (IC50 value) then calculated from the concentration-response curve.

Data set [5] addresses T2, p38 MAPKα isoform (MAPK14) (Homo sapiens, UniProt Q16539).
T2 construct: purchased Invitrogen
The experiment in a line: Enzyme inhibition assay (FRET, Z-LYTE), p38 MAPKα via MAPKAP-K2 activation. Type of data set: biochemical. Conditions: read-out: Enzyme Inhibition IC50 p38α. The method, then: as §3
For the p38 MAPKα isoform (MAPK14: Invitrogen), enzyme activity was evaluated indirectly by determining the level of activation/phosphorylation of the down-stream molecule, MAPKAP-K2. The p38 MAPKα protein was mixed with the test compound for 2 hr at RT. […] Development reagent was then added and the mixture incubated for 1 hr before detection by fluorescence completed the assay protocol.

Data set [6] concerns TNFα release in d-U937 cells. Description: LPS-induced TNFα release in d-U937 cells. Conditions: Homo sapiens, dU937, relative to 10 μg/mL BIRB796, read-out: LPS/TNFα REC50 d-U937. Type of data set: cell-based, human. As to the method:
as §1, §2

T2 sequence (Q16539 whole entry, canonical isoform): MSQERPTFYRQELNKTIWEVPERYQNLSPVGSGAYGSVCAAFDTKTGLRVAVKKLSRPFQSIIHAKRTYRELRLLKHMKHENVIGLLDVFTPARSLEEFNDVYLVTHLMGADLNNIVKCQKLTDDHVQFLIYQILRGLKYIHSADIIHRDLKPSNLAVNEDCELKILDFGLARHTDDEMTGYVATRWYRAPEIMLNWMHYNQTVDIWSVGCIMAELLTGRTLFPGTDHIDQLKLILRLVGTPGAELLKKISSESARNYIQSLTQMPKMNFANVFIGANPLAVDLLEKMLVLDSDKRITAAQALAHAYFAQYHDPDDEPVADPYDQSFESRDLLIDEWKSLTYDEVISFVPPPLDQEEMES

For the molecule `COCC(=O)Nc1cc(Oc2ccc(NC(=O)Nc3cc(C(C)(C)C)nn3-c3ccc(C)cc3)c(F)c2)ccn1` [Example 1, N-(4-(4-(3-(3-tert-Butyl-1-p-tolyl-1H-pyrazol-5-yl)ureido)-3-fluorophenoxy)pyridin-2-yl)-2-methoxyacetamide], the IC50 in data set [1] is 0.9 nM; in data set [3] it was 9.6 nM; in data set [4] it was 8.8 nM; at p38 MAPKγ (MAPK12) it was 40.5 nM; in data set [5], 105 nM. For the same molecule, the “MTT Assay (Viability) 4 h d-U937, percentage loss of cell viability” value in data set [2] was 1.7%. In addition, the “MTT Assay (Viability) 24 h d-U937, percentage loss of cell viability” value in data set [2] turned out to be 76.1%. For the same molecule, the EC50 in data set [6] worked out at 2.3 nM.

Turning to `COCC(=O)Nc1cc(Oc2ccc(NC(=O)Nc3cc(C(C)(C)C)nn3-c3ccc(C)cc3)c(S(C)(=O)=O)c2)ccn1` [Example 2, N-(4-(4-(3-(3-tert-Butyl-1-p-tolyl-1H-pyrazol-5-yl)ureido)-3-(methylsulfonyl)phenoxy)pyridin-2-yl)-2-methoxyacetamide], the IC50 in data set [1] turned out to be 5.3 nM; in data set [3], 174 nM; in data set [4] it was 427 nM; at p38 MAPKγ (MAPK12) it was 366 nM; in data set [5], 37.7 nM. Moreover, the “MTT Assay (Viability) 4 h d-U937, percentage loss of cell viability” value in data set [2] is −3.1%. The “MTT Assay (Viability) 24 h d-U937, percentage loss of cell viability” value in data set [2] is given as 32.7%. Also, in data set [6], the EC50 came to 29.4 nM.

`COCC(=O)Nc1cc(Oc2ccc(NC(=O)Nc3cc(C(C)(C)C)nn3-c3ccc(C)cc3)c(C(F)(F)F)c2)ccn1` [Example 3, N-(4-(4-(3-(3-tert-Butyl-1-p-tolyl-1H-pyrazol-5-yl)ureido)-3-(trifluoromethyl)phenoxy)pyridin-2-yl)-2-methoxyacetamide]: the IC50 in data set [1] is 1 nM; in data set [3] it was 41.2 nM; in data set [4], 24.4 nM; at p38 MAPKγ (MAPK12), 175 nM; in data set [5], 5.1 nM. In data set [2], the “MTT Assay (Viability) 4 h d-U937, percentage loss of cell viability” value is reported as 3.4%. Further, the “MTT Assay (Viability) 24 h d-U937, percentage loss of cell viability” value in data set [2] was 22.9%. The EC50 in data set [6] was found to be 1.1 nM.

Consider `COCC(=O)Nc1cc(Oc2ccc(NC(=O)Nc3cc(C(C)(C)C)nn3-c3ccc(C)cc3)c(Cl)c2C#N)ccn1` [Example 4, N-(4-(4-(3-(3-tert-Butyl-1-p-tolyl-1H-pyrazol-5-yl)ureido)-3-chloro-2-cyanophenoxy)pyridin-2-yl)-2-methoxyacetamide], for which the IC50 turned out to be 0.2 nM in data set [1]; 0.1 nM in data set [3]; 1.1 nM in data set [4]; 238 nM at p38 MAPKγ (MAPK12); 4.5 nM in data set [5]. For the same molecule, in data set [2], the “MTT Assay (Viability) 4 h d-U937, percentage loss of cell viability” value was −24.1%. The “MTT Assay (Viability) 24 h d-U937, percentage loss of cell viability” value in data set [2] is given as 64.5%. Further, in data set [6], the EC50 was 0.1 nM.

In the case of `COCC(=O)Nc1cc(Oc2ccc(NC(=O)Nc3cc(C(C)(C)C)nn3-c3ccc(C)cc3)c3c2CCCC3)ccn1` [Example 5, N-(4-(4-(3-(3-tert-Butyl-1-p-tolyl-1H-pyrazol-5-yl)ureido)-5,6,7,8-tetrahydronaphthalen-1-yloxy)pyridin-2-yl)-2-methoxyacetamide], the IC50 in data set [1] came to 1.4 nM; in data set [3] it was 50.6 nM; in data set [4], 21.9 nM; at p38 MAPKγ (MAPK12) it was 1360 nM; in data set [5] it was 18.7 nM. In addition, the “MTT Assay (Viability) 4 h d-U937, percentage loss of cell viability” value in data set [2] is −3.5%. Besides, the “MTT Assay (Viability) 24 h d-U937, percentage loss of cell viability” value in data set [2] was found to be 18.7%. Also, in data set [6], the EC50 came to 0.4 nM.

For `COCC(=O)Nc1cc(Oc2ccc(NC(=O)Nc3cc(C(C)(C)C)nn3-c3ccc(C)cc3)c3cccnc23)ccn1` [Example 6, N-(4-(5-(3-(3-tert-butyl-1-p-tolyl-1H-pyrazol-5-yl)ureido)quinolin-8-yloxy)pyridin-2-yl)-2-methoxyacetamide], the IC50 in data set [1] was found to be 1.6 nM; in data set [3] it was 3.9 nM; in data set [4], 7.2 nM; at p38 MAPKγ (MAPK12), 57.9 nM; in data set [5], 6.7 nM. The “MTT Assay (Viability) 4 h d-U937, percentage loss of cell viability” value in data set [2] is on record as −21.3%. In addition, the “MTT Assay (Viability) 24 h d-U937, percentage loss of cell viability” value in data set [2] is reported as −14.6%. In addition, the EC50 in data set [6] is 0.1 nM.

Take `COCC(=O)Nc1cc(Oc2ccc(NC(=O)Nc3cc(C(C)(C)C)nn3-c3ccc(C)cc3)c3[nH]ncc23)ccn1` [Example 7, N-(4-(7-(3-(3-tert-Butyl-1-p-tolyl-1H-pyrazol-5-yl)ureido)-1H-indazol-4-yloxy)pyridin-2-yl)-2-methoxyacetamide]: the IC50 is 111 nM in data set [1]; 124 nM in data set [3]; 150 nM in data set [4]; 36.6 nM on p38 MAPKγ (MAPK12); 1.3 nM in data set [5]. The “MTT Assay (Viability) 4 h d-U937, percentage loss of cell viability” value in data set [2] is −2.0%. Besides, in data set [2], the “MTT Assay (Viability) 24 h d-U937, percentage loss of cell viability” value is recorded as 64.5%. For the same molecule, the EC50 in data set [6] was determined as 112 nM.

`CNCC(=O)Nc1cc(Oc2ccc(NC(=O)Nc3cc(C(C)(C)C)nn3-c3ccc(CO)cc3)c(Cl)c2Cl)ccn1` [Example 8, N-(4-(4-(3-(3-tert-Butyl-1-(4-(hydroxymethyl)phenyl)-1H-pyrazol-5-yl)ureido)-2,3-dichlorophenoxy)pyridin-2-yl)-2-(methylamino)acetamide]: the IC50 in data set [1] amounted to 0.5 nM; in data set [3], 4.7 nM; in data set [4] it was 2.4 nM; on p38 MAPKγ (MAPK12), 17.2 nM; in data set [5], 7.6 nM. Also, the “MTT Assay (Viability) 4 h d-U937, percentage loss of cell viability” value in data set [2] is −7.0%. The “MTT Assay (Viability) 24 h d-U937, percentage loss of cell viability” value in data set [2] is reported as 85.6%. Further, in data set [6], the EC50 was 0.9 nM.

Values taken from patent US10000471B2, “Pyrazole P38 map kinase inhibitors” (Respivert Limited, priority 2010, dated 2018).
